From patent US20230277569A1, “Compositions and Methods for Treating, Ameliorating and/or Preventing Cancer and Kits for the Same” (priority 2022, published 2023)
“Also recorded” adds a separate entry of the source.

Key:
[1] = system: beagle dogs; assay: Toxicity in beagle dogs, IV infusion for 36 d; assay type: in vivo
Experimental: (§1) Eighteen male and female (5-6 mo old) purebred beagle dogs (Cumberland, Va.) were acclimated for 47 d (20 to 26° C., relative humidity 30-70%, 10 or greater air changes/h, and a 12-h light/dark cycle) prior to study initiation. Animals were given water ad libitum and Certified Canine Diet #5007 (PMI Nutrition International Certified LabDiet®) for 4 to 5 h each day. At study initiation, animal body weights ranged from 8.6 to 11.5 kg for males and 6.0 to 9.4 kg for females. At least 1 week prior to initiation of dosing, animals were fasted overnight, anesthetized, and a catheter attached to a subcutaneous vascular access port was surgically implanted into a jugular vein. Animals were acclimated to infusion jackets prior to catheter implantation surgery. Animals were infused with sterile saline at a dose rate of 5 mL/h when the vascular access ports were accessed and when animals were connected to the infusion system (except when dosed with the test or vehicle control article). The patency of each catheter was checked as needed. Prednisolone tablets were administered orally at 2 mg/kg the night prior to dosing. Diphenhydramine (5 mg/kg; IM injection 0.1 mL/kg, 50 mg/mL) was administered prior to dosing and post the start of infusion (d 1 only). Male and female dogs received dose levels of Gamitrinib of 1.25, 3.33 and 6.25 mg/kg/dose formulated as indicated above during a 1 h infusion on d 1, 8, 11, 15, 18, 22, 25, 29, 32, and 36 at a volume of 2 mL/kg. The vehicle control was as above. […] Dosing was stopped, and 23 of 24 animals were administered additional diphenhydramine, 11 were administered Flunixin meglumine and buprenorphine, and 6 were administered acepromazine. Symptoms subsided in all animals after completion of these interventions. As a result of these observations, the polysorbate levels, which were increased from 0.025% (w/v) to 0.125% (w/v) to minimize precipitation, were returned to the original concentrations; 2 mg/kg prednisone was administered orally the night prior to dosing; and the diphenhydramine pretreatment dose was updated to 5 mg/kg 15 to 30 min prior to dosing. Detailed observations were conducted for each animal up to seven times during the predose phase, prior to dosing on d 1, 8, 15, 22, 29, and 36 of the dosing phase, and on d 1, 7, and 14 of the recovery phase. Blood samples (1 mL) were collected via the cephalic vein 5, 15, and 30 min and 1, 4, 8, and 24 h post the end of infusion on d 8 and 36 of the dosing phase. Formalin-fixed and paraffin-embedded tissue samples collected at the end of the study (d 39) were processed for histologic examination.

[2] = Toxicity in beagle dogs, IV infusion for 36 d; assay type: in vivo; conditions: beagle, dog, in vivo, iv, dogs; for AUC(0-t): read-out: AUC0-24
Experimental: as §1

[3] = Toxicity and toxicokinetics in rats, IV twice weekly for 29 d; assay type: in vivo, Sprague-Dawley rats; conditions: Sprague-Dawley, rat; for Cmax / AUC(0-t): plasma, iv, rats; for AUC(0-t): read-out: AUC0-24
Experimental: Ninety-six male and female Sprague-Dawley rats (6-7 weeks old) were received from Charles River Laboratories, (Raleigh, N.C.) and catheterized via a femoral vein prior to arrival. Animals were acclimated in individual stainless-steel cages with access to water and Certified Rodent Diet #2014C (Envigo RMS) ad libitum for 6 d prior to study initiation. Environmental controls were set to maintain a temperature range of 20 to 26° C., a relative humidity range of 30 to 70%, eight or greater air changes/h, and a 12-h light/dark cycle. Animals were infused with sterile isotonic (0.9%) saline for a minimum of 4 d (0.20 mL/h for males or 0.15 mL/h for females) during the predose phase. At initiation of dosing, animals were 8 to 9 weeks old, and body weights ranged from 283 to 341 g for males and 188 to 238 g for females. Gamitrinib formulated as indicated above was administered by IV infusion on d […], 8, 11, 15, 18, 22, 25, and 29 of the dosing phase at 1, 10, 25 mg/kg/dose and dose volume of 5 mL/kg. The vehicle control administered with the same schedule contained 2.5% DMSO, 0.125% polysorbate 80, 0.031% lecithin, 1.25% sucrose and 4.375% dextrose. Animals were checked twice daily throughout the duration of the study for mortality, abnormalities, and signs of pain or distress. Detailed observations were conducted for each animal up to two times during the predose phase and for each toxicity animal prior to dosing on d 1, 8, 15, 22, and 29 of the dosing phase and on d 1, 7, and 14 of the recovery phase. Blood samples were collected on d. 1, 4 and 29 of the dosing phase 5 min, 1 h and 24 h post-dose, maintained on chilled cryoracks and centrifuged within 1 h of collection. Tissue samples harvested from each animal were embedded in paraffin, sectioned, and slides were prepared and stained with hematoxylin and eosin.

[4] = target: CYP2B6 (Homo sapiens, UniProt P20813); assay: CYP inhibition in liver microsomes, CYP2B6; assay type: in vitro ADME; conditions: human liver microsomes 0.1 mg/mL
Experimental: After addition of prototypical CYP substrates in 250 μL, samples were incubated for 10 min (CYP1A2, CYP2B6, CYP2C9, and CYP3A4) or 20 min (CYP2C8) at 37° C. in 5% CO2. […] Samples were analyzed for metabolite formation by LC-MS/MS. The results were expressed using the peak area ratio of analyte to internal standard, based on the calibration curves.
where Range=fitted uninhibited value, s=slope factor, x=inhibitor concentration, y=% control activity.

[5] = target: Human HCN4 (Homo sapiens, UniProt Q9Y3Q4); assay: Ion channel screening, HCN4; assay type: cell-based; conditions: n=16, read-out: inhibition of HCN4 currents
From the text: The parameter measured was the maximum outward current evoked on stepping to +60 mV from the holding potential of −80 mV. hERG currents were evoked by a three-pulse protocol where voltage was first stepped to +40 mV for two sec from a holding potential of −80 mV to inactivate hERG channels. The voltage is then stepped back to −50 mV for two sec to evoke a tail current prior to returning to the holding potential for 1 sec. The parameter measured was the amplitude of the 3rd pulse tail current upon stepping back to −50 mV after the step to +40 mV. Human HCN4 currents were evoked by a single pulse from a holding potential of −30 mV to a potential of −110 mV for 4 sec prior to returning to −30 mV. The parameter measured was the maximum inward current evoked upon stepping to −110 mV from the holding potential of −30 mV. Human Kir2.1 currents were evoked from a holding potential of −20 mV by a series of 10 500 msec pulses to −120 mV using a 200 msec interval between pulses. The parameters measured were the amplitudes of the instantaneous inward currents evoked on stepping to −120 mV for the 1st pulse and the maximum inward current at the end of the 10th hyperpolarizing pulse. For all experiments, data were filtered for seal quality, seal drop, and current amplitude.

[6] = 3.33 mg/kg/dose (NOAEL), d 36 of dosing, both sexes
[7] = 6.25 mg/kg/dose (HNSTD), d 36, both sexes
[8] = 1 mg/kg/dose (NOAEL), d 29 of dosing

Sequence of Human HCN4 (Q9Y3Q4 whole entry): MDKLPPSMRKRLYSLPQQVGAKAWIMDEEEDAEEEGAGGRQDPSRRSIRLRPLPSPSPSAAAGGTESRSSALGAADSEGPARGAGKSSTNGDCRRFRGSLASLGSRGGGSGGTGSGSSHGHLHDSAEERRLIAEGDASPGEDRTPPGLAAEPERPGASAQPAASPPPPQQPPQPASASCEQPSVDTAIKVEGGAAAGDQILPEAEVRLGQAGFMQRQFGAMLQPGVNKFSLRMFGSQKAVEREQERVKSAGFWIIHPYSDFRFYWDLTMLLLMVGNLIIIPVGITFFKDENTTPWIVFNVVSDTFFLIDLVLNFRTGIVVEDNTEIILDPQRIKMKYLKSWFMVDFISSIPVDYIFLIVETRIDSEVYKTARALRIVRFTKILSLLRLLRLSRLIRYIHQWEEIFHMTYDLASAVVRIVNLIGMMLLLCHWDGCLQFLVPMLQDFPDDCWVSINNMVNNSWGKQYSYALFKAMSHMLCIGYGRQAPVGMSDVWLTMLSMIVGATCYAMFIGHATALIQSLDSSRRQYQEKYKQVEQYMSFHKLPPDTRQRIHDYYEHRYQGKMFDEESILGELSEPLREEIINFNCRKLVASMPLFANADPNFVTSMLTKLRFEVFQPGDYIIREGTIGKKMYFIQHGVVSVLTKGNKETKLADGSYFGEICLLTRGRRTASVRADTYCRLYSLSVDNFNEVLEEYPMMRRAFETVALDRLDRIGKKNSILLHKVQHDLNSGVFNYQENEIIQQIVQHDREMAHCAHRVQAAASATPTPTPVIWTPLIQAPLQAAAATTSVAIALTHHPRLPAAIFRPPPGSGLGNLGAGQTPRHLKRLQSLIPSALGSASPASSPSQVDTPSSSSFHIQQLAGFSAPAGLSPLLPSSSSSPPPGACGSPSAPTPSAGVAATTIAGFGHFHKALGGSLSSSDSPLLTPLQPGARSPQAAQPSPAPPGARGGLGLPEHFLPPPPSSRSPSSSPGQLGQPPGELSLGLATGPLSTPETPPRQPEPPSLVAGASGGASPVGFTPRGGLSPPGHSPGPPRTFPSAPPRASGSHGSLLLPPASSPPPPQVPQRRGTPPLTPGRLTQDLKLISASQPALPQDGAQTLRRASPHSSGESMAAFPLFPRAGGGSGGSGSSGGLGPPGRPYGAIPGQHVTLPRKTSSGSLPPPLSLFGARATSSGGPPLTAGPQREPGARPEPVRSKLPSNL
Sequence of CYP2B6 (P20813 whole entry): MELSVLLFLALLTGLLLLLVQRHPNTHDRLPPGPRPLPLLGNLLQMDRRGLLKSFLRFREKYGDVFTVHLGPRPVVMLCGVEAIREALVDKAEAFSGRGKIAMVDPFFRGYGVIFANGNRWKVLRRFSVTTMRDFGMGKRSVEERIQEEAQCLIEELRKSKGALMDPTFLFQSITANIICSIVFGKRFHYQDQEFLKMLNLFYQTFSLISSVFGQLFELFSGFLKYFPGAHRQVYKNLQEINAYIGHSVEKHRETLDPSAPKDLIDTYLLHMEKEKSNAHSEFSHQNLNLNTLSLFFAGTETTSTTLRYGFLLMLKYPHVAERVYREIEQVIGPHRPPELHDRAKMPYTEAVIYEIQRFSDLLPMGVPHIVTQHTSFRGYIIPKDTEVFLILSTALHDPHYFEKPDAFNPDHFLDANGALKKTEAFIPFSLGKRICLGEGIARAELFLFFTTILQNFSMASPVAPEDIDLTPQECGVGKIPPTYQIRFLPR

Structure (SMILES): CO[C@H]1/C=C\C=C(/C)C(=O)NC2=CC(=O)C(NCCCCCC[P+](c3ccccc3)(c3ccccc3)c3ccccc3)=C(C[C@@H](C)C[C@H](OC)[C@H](O)[C@@H](C)/C=C(\C)[C@@H]1OC(N)=O)C2=O [Gamitrinib, 17-Demethoxy-17-((6-(triphenylphosphonio)hexyl)amino)geldanamycin]
- NOAEL ([1]; beagle dogs, IV for 36 d): 3.33 mg/kg/dose
- highest non-severely toxic dose (HNSTD) ([1]; beagle dogs, IV for 36 d): 6.25 mg/kg/dose
- Bone marrow and liver parameters ([1]; dog, in vivo): unremarkable
- changes in organ weights ([1]; dog, in vivo): No Gamitrinib-related changes
- serum urea nitrogen and creatinine ([1]; dogs (both sexes), 6.25 mg/kg/dose, 6.25 mg/kg): trend of increased serum urea nitrogen and creatinine; also recorded: modest elevation of urea nitrogen and creatinine concentrations
- kidney microscopic finding ([1]; dogs, 6.25 mg/kg/dose, reversible during recovery): slight to moderate kidney tubular degeneration/regeneration
- alterations in body weight or other clinical observations ([1]; dogs, 1.25, 3.33 and 6.25 mg/kg/dose): no alterations
- Body weight ([1]; female dogs, 3.33 mg/kg, day 1): 7.6 ± 0.9 kg
- Body weight ([1]; female dogs, 3.33 mg/kg, day 8): 7.6 ± 0.9 kg
- Body weight ([1]; female dogs, 3.33 mg/kg, day 15): 7.6 ± 1.06 kg
- Body weight ([1]; female dogs, 3.33 mg/kg, day 22): 7.5 ± 0.75 kg
- Body weight ([1]; female dogs, 3.33 mg/kg, day 29): 7.6 ± 0.7 kg
- Body weight ([1]; female dogs, 3.33 mg/kg, day 36): 7.5 ± 0.8 kg
- Body weight ([1]; female dogs, 6.25 mg/kg, day 1): 7.7 ± 0.57 kg
- Body weight ([1]; female dogs, 6.25 mg/kg, day 8): 7.7 ± 0.62 kg
- Body weight ([1]; female dogs, 6.25 mg/kg, day 15): 7.4 ± 0.54 kg
- Body weight ([1]; female dogs, 6.25 mg/kg, day 22): 7.2 ± 0.6 kg
- Body weight ([1]; female dogs, 6.25 mg/kg, day 29): 7.3 ± 0.58 kg
- Body weight ([1]; female dogs, 6.25 mg/kg, day 36): 7.3 ± 0.59 kg
- Body weight ([1]; male dogs, 3.33 mg/kg, day 1): 10.1 ± 1.1 kg
- Body weight ([1]; male dogs, 3.33 mg/kg, day 8): 10 ± 1.04 kg
- Body weight ([1]; male dogs, 3.33 mg/kg, day 15): 9.9 ± 1.15 kg
- Body weight ([1]; male dogs, 3.33 mg/kg, day 22): 10.2 ± 1.21 kg
- Body weight ([1]; male dogs, 3.33 mg/kg, day 29): 10.1 ± 1.21 kg
- Body weight ([1]; male dogs, 3.33 mg/kg, day 36): 10 ± 1.36 kg
- Body weight ([1]; male dogs, 6.25 mg/kg, day 1): 9.9 ± 0.83 kg
- Body weight ([1]; male dogs, 6.25 mg/kg, day 8): 9.8 ± 0.85 kg
- Body weight ([1]; male dogs, 6.25 mg/kg, day 15): 9.5 ± 0.57 kg
- Body weight ([1]; male dogs, 6.25 mg/kg, day 22): 9.2 ± 0.57 kg
- Body weight ([1]; male dogs, 6.25 mg/kg, day 29): 9.2 ± 0.46 kg
- Body weight ([1]; male dogs, 6.25 mg/kg, day 36): 9.1 ± 0.58 kg
- Cmax [2, 6]: 560 ± 404 ng/mL
- AUC(0-t) [2, 6]: 1740 ± 713 ng·h/mL
- Cmax [2, 7]: 1260 ± 556 ng/mL
- AUC(0-t) [2, 7]: 3290 ± 1090 ng·h/mL
- Cmax [3, 8]: 87.1 ng/mL
- AUC(0-t) [3, 8]: 174 ng·h/mL
- Cmax ([3]; 10 mg/kg/dose (STD 10), d 29): 311 ng/mL
- AUC(0-t) ([3]; 10 mg/kg/dose (STD 10), d 29): 1300 ng·h/mL
- Vd ([3]; both sexes, in vivo, rats, 1, 10 or 25 mg/kg/dose IV twice weekly, d 4 and d 29, read-out: Vss): 12.2 to 90 L/kg
- IC50 [4]: 16 µM
- inhibition at 10 µM [5]: -0.2 ± 3.7%
